We go through 20 compounds from patent US7432257B2, “Piperdinyl-phenoxazine and phenothiazine derivatives as δ-opioid modulators” (Janssen Pharmaceutica N.V., priority 2005, dated 2008).

One experiment has as its target T1, delta opioid receptor (Rattus norvegicus, UniProt P33533).
T1 construct: from tissue; host or cells: Forebrain of male Wistar rats, particulate membrane preparation
Description: Rat Brain Delta Opioid Receptor Binding Assay. Particulars: rat forebrain membranes; [3H]DPDPE or [3H]naltrindole, 25° C., 2.5 h.

Another experiment deals with T2, mu opioid receptor (Rattus norvegicus, UniProt P33535).
T2 construct: from tissue; host or cells: Forebrain of male Wistar rats, particulate membrane preparation
T2 sequence (P33535 whole entry): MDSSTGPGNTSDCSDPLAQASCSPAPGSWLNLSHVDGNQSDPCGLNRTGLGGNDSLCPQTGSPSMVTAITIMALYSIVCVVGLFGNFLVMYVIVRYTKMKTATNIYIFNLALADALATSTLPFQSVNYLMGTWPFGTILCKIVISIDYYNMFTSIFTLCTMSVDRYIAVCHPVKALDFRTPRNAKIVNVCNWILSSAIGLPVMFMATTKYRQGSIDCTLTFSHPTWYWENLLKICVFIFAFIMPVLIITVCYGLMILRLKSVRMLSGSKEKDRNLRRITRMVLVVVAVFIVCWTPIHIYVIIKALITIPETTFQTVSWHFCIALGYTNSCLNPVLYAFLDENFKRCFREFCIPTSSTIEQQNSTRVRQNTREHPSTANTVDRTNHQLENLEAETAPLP
As to the kind of experiment: Rat Brain Mu Opioid Receptor Binding Assay. Particulars: rat forebrain membranes; [3H]DAMGO, 25° C., 2.5 h.

The target in experiment [1] is hMOR (CHO-hMOR cell membranes) (Homo sapiens, UniProt P35372). As to the kind of experiment: [35S]GTPγS Binding Assays in CHO-hMOR Cell Membranes. The experiment is classed as biochemical. Particulars: read-out: mu GTPγS EC50.
hMOR (CHO-hMOR cell membranes), sequence (P35372 whole entry): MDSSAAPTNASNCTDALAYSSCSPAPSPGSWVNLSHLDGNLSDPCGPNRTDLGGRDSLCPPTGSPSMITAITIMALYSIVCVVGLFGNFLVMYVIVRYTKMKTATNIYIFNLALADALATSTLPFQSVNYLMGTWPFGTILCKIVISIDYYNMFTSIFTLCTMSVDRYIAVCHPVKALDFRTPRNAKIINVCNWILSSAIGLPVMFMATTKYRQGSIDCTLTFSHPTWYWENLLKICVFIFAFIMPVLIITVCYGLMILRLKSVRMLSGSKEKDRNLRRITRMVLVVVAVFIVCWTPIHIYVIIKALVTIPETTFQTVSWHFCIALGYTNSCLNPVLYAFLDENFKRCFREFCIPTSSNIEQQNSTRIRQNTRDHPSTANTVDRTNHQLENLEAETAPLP
Experiment [2] has as its target T3, delta opioid receptor (NG108-15 cell membranes) (Mus musculus, UniProt P32300).
T3 construct: NG108-15 cell membranes were purchased from Applied Cell Sciences (Rockville, Md.); host or cells: NG108-15 cell membranes (purchased)
Description: [35S]GTPγS Binding Assay in NG108-15 Cell Membranes (Delta Opioid). It is filed as biochemical.

Molecules are shown by their SMILES. Bounds are passed on as bounds.

T1 sequence (P33533 whole entry): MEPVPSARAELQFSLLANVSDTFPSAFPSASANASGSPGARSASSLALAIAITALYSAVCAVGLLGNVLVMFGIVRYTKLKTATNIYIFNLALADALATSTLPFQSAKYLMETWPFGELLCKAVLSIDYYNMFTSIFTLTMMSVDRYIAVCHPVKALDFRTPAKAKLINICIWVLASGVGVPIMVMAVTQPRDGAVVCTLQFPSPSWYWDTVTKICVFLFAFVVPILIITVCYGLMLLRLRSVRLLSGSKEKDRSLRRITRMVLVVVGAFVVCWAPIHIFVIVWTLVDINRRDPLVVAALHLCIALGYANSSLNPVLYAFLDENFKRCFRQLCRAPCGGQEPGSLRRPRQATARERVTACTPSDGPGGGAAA
T3 sequence (P32300 whole entry): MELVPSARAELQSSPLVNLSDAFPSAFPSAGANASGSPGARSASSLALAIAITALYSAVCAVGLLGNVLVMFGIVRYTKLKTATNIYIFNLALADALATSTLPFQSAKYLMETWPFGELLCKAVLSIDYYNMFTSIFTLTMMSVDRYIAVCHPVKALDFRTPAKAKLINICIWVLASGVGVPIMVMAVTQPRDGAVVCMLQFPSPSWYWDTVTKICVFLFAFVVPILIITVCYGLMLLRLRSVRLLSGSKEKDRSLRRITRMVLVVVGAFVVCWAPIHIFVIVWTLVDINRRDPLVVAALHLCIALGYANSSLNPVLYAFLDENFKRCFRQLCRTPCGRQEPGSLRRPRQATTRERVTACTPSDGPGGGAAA

For the compound `Oc1cccc2c1Oc1cc(-c3ccncc3)ccc1N2C1CCNCC1` (single isomer, unassigned) [Compound 4p, 10-Piperidin-4-yl-7-pyridin-4-yl-10H-phenoxazin-4-ol], on delta opioid receptor, the Ki stood at 535 nM. Regarding `COc1cccc2c1Oc1cc(-c3ccncc3)ccc1N2C1CCNCC1` (single isomer, unassigned) [Compound 5p, 6-Methoxy-10-piperidin-4-yl-3-pyridin-4-yl-10H-phenoxazine], the inhibition constant Ki at delta opioid receptor amounted to 589 nM.

Consider `c1ccc(CN2CCC(N3c4ccccc4Sc4cc(-c5cccnc5)ccc43)CC2)nc1` [Compound 2f, 3-Pyridin-3-yl-10-(1-pyridin-2-ylmethyl-piperidin-4-yl)-10H-phenothiazine], for which the Ki came out at 365 nM at delta opioid receptor and 2850 nM at mu opioid receptor. `CC(=O)Nc1ccccc1-c1ccc2c(c1)Oc1ccccc1N2C1CCN(Cc2ccoc2)CC1` [Compound 3j, N-{2-[10-(1-Furan-3-ylmethyl-piperidin-4-yl)-10H-phenoxazin-3-yl]-phenyl}-acetamide] displayed a Ki on delta opioid receptor of 2280 nM. Take `CCNC(=O)c1ccc2c(c1)Sc1ccccc1N2C1CCN(Cc2cccs2)CC1` [Compound 4m, 10-(1-Thiophen-2-ylmethyl-piperidin-4-yl)-10H-phenothiazine-3-carboxylic acid ethylamide]: the Ki at delta opioid receptor amounted to 784 nM. In the case of `COc1cccc2c1Oc1cc(C(=O)N(C)C)ccc1N2C1CCN(Cc2ccccc2)CC1` [Compound 5d, 10-(1-Benzyl-piperidin-4-yl)-6-methoxy-10H-phenoxazine-3-carboxylic acid dimethylamide], at delta opioid receptor, affinity was put at a Ki of 374 nM. For the compound `CC(=O)Nc1ccccc1-c1ccc2c(c1)Oc1ccccc1N2C1CCN(Cc2ccccc2)CC1` [Compound 5h, N-{2-[10-(1-Benzyl-piperidin-4-yl)-10H-phenoxazin-3-yl]-phenyl}-acetamide], the inhibitory constant (Ki) was 400 nM on delta opioid receptor and 3320 nM at mu opioid receptor. At delta opioid receptor, `CC(=O)Nc1ccccc1-c1ccc2c(c1)Oc1ccccc1N2C1CCN(Cc2ccccn2)CC1` [Compound 5j, N-{2-[10-(1-Pyridin-2-ylmethyl-piperidin-4-yl)-10H-phenoxazin-3-yl]-phenyl}-acetamide] yielded a Ki of 576 nM. In turn, `c1ccc(CN2CCC(N3c4ccccc4Oc4cc(-c5ccncc5)ccc43)CC2)nc1` [Compound 5k, 3-Pyridin-4-yl-10-(1-pyridin-2-ylmethyl-piperidin-4-yl)-10H-phenoxazine] gave a Ki at delta opioid receptor of 1200 nM.

On to `CC(=O)Nc1ccccc1-c1ccc2c(c1)Sc1ccccc1N2C1CCN(Cc2ccccn2)CC1` [Compound 6g, N-{2-[10-(1-Pyridin-2-ylmethyl-piperidin-4-yl)-10H-phenothiazin-3-yl]-phenyl}-acetamide], for which the figures for the Ki on delta opioid receptor and at mu opioid receptor were 255 nM and 837 nM, respectively. In the case of `c1ccc2c(c1)Oc1cc(-c3nnn[nH]3)ccc1N2C1CCN(Cc2ncc[nH]2)CC1` [Compound 7a, 10-[1-(1H-Imidazol-2-ylmethyl)-piperidin-4-yl]-3-(1H-tetrazol-5-yl)-10H-phenoxazine], the Ki on delta opioid receptor is 655 nM; on mu opioid receptor it was 2770 nM. `CC(=O)Nc1ccccc1-c1ccc2c(c1)Oc1ccccc1N2C1CCN(Cc2ncc[nH]2)CC1` [Compound 7j, N-(2-{10-[1-(1H-Imidazol-2-ylmethyl)-piperidin-4-yl]-10H-phenoxazin-3-yl}-phenyl)-acetamide] had a Ki on delta opioid receptor of 249 nM. For the compound `CCN(CC)C(=O)c1ccc2c(c1)Oc1ccccc1N2C1CCN(Cc2nccs2)CC1` [Compound 9r, 10-(1-Thiazol-2-ylmethyl-piperidin-4-yl)-10H-phenoxazine-3-carboxylic acid diethylamide], the Ki at delta opioid receptor is 300 nM. `c1ccc(CN2CCC(N3c4ccccc4Oc4cc(-c5nnn[nH]5)ccc43)CC2)nc1` [Compound 10a, 10-(1-Pyridin-2-ylmethyl-piperidin-4-yl)-3-(1H-tetrazol-5-yl)-10H-phenoxazine] displayed a Ki at delta opioid receptor of 227 nM. Consider `CCN(CC)C(=O)c1ccc2c(c1)Oc1ccccc1N2C1CCN(Cc2ccoc2)CC1` [Compound 10r, 10-(1-Furan-3-ylmethyl-piperidin-4-yl)-10H-phenoxazine-3-carboxylic acid diethylamide], for which the Ki on delta opioid receptor is 655 nM. As to `N#Cc1ccc2c(c1)Oc1ccccc1N2C1CCNCC1` [Compound 11a, 10-Piperidin-4-yl-10H-phenoxazine-3-carbonitrile], the Ki on delta opioid receptor amounted to 436 nM; on mu opioid receptor it was 5820 nM. The EC50 is more than 10000 nM in experiment [1] and 1930 nM in experiment [2].

Take `NC(=O)c1ccc2c(c1)Oc1ccccc1N2C1CCNCC1` [Compound 12a, 10-Piperidin-4-yl-10H-phenoxazine-3-carboxylic Acid amide]: the Ki on delta opioid receptor amounted to 682 nM; at mu opioid receptor, 1240 nM. For the same compound, the EC50 in experiment [1] is more than 10000 nM; in experiment [2] it was 9250 nM. In turn, `O=C(c1ccc2c(c1)Oc1ccccc1N2C1CCN(Cc2ccccc2)CC1)N1CC[C@H](O)C1` [Compound 13r, [10-(1-Benzyl-piperidin-4-yl)-10H-phenoxazin-3-yl]-(3-(S)-Hydroxypyrrolidin-1-yl)-methanone] came in with a Ki at delta opioid receptor of 465 nM. Still for that read-out and setting: as for `O=C(c1ccc2c(c1)Oc1ccccc1N2C1CCN(Cc2ccccn2)CC1)N1CC[C@H](O)C1` [Compound 15r, (3-(S)-Hydroxypyrrolidin-1-yl)-[10-(1-pyridin-2-ylmethyl-piperidin-4-yl)-10H-phenoxazin-3-yl]-methanone], the figure is 203 nM; as for `O=C(c1ccc2c(c1)Oc1ccccc1N2C1CCN(Cc2ccoc2)CC1)N1CC[C@H](O)C1` [Compound 16r, [10-(1-Furan-3-ylmethyl-piperidin-4-yl)-10H-phenoxazin-3-yl]-(3-(S)-Hydroxypyrrolidin-1-yl)-methanone], 189 nM.
